Laboratory results from patent US9029414B2, “Triterpenoid compounds and methods of use thereof” (Biotechnology Research Corporation, priority 2008, dated 2015).

System: MOG-induced IFN-γ in primary splenocytes
Assay: IFN-γ Quantikine ELISA in primary splenocytes of EAE mice
Assay type: cell-based
Settings: for Reduction in IFN-γ, % Reduction: splenocytes of EAE mice dosed 100 mg/kg orally daily vs MOG + Vehicle; for IFN-γ, Average / level of IFN-γ: splenocytes of EAE mice dosed 100 mg/kg orally daily, exogenous MOG; for decrease of IFN-γ in response to exogenous compound: splenocytes of compound-treated EAE mice (100 mg/kg); for decrease of IFN-γ in response to exogenous compound / reduction in the amount of MOG-induced IFN-γ: exogenous compound 30 μM, MOG 25 μg/mL; for reduction in the amount of MOG-induced IFN-γ: splenocytes of vehicle-treated EAE mice, 48 hrs
Description: On day 21, EAE mice were sacrificed by cervical dislocation and spleens were removed aseptically. The removed spleens were then cut with sterilized scissors and strained through […] mesh (BD Bioscience) with a plunger of 5 mL syringe (BD Bioscience) in 9 mL of RPMI 1640 (Invitrogen) with 100 U/mL penicillin and 100 μg/mL streptomycin (Sigma). The cell mixture was then added to 9 mL of Lympholyte (Cedarlane Laboratories) for gradient separation of splenocytes from red bloods cells by centrifugation at 1500 g for 20 min. After the centrifugation, the lympholyte layer containing splenocytes were carefully removed and washed with 10 mL of RPMI 1640 at 800 g for 10 min for three times. The isolated splenocytes were seeded onto different plate format and cultured with RPMI 1640 medium (Invitrogen) supplement with 10% heat inactivated fetal bovine serum (Invitrogen) and 100 U/mL penicillin and 100 μg/mL streptomycin at 37° C. CO2 incubator.
Splenocytes from EAE mice were cultured at the density of 1×10^6 cells in 12-well plates (Falcon) in the absence or presence of the MOG peptide (25 μg/mL) (Hooke Laboratories), DA001 and DA021 (30 μM) with RPMI 1640 medium (Invitrogen) supplement with 10% heat inactivated fetal bovine serum (Invitrogen) and 100 U/mL penicillin and 100 μg/mL streptomycin (Sigma) for 48 h. After 48 h, the supernatants were collected by pelleting the cells at 300 g for 10 min at 4° C. 50 μL of the each sample was added to the microtiter plate provided by the manufacturer of the Quantikine ELISA assay kit (R and D systems). Additional 50 μL of assay diluents buffer was added and incubated at room temperature for 2 h. After the incubation, the supernatants were discarded and the cells were washed with wash buffer. 100 μL of conjugate was added to the cells and the plate was again incubated at room temperature for 2 h. After another washing, 100 μL of substrate solution was added followed by 30 min incubation at room temperature. Subsequently, 100 μL of stop solution was added to each well and the plate was read in 450 nm wavelength on a microplate reader (Dynex Revelation 2.2).
Cytokines are believed to be one of the key signaling molecules in disease progression of EAE. Autoimmune response observed in the EAE model is believed to be mediated via the Th1 pathway, and interferon-gamma (IFN-γ) is the hallmark cytokine of the Th1 immune response. Therefore, it is critical to examine the efficacy of the compounds in modulating the levels of cytokines in EAE mice. To this end, splenocytes isolated from the spleens of EAE mice were cultured and treated with exogenous MOG peptide and the amount of IFN-γ was measured in response to exogenous DA001 and DA021 (30 μM) treatments using ELISA.
(§1) The cells were cultured in RPMI 1640 medium supplement with 10% heat inactivated fetal bovine serum and penicillin/streptomycin, in the absence or presence of MOG (25 μg/mL, Ex) with or without DA001 or DA021 (30 μM, Ex). Supernatants were collected after 48 hrs and IFN-γ Quantikine ELISA assay kit (R and D systems) was used according to the manufacturer's protocol. The amount of IFN-γ was calculated based on the standard curve established during the assay. The graph presented is the composite of two separate trials with duplicate samples in each trial. ***=p≦0.0001, **=p≦0.001, *=p≦0.01.
as §1, with “Cells” for “The cells”, “μg/mL)” for “μg/mL, Ex)”, “DA001” for “DA001 or DA021”, “μM).” for “μM, Ex).”, “***=p≦0.0001. […]” for “***=p≦0.0001, **=p≦0.001, *=p≦0.01.”

SMILES | Reduction in IFN-γ, % Reduction [%] | IFN-γ, Average | level of IFN-γ [pg/mL] | decrease of IFN-γ in response to exogenous compound [%] | reduction in the amount of MOG-induced IFN-γ [%]
C=C(C)[C@@H]1CC[C@]2(C(=O)O)CC[C@]3(C)C(CC[C@@H]4[C@@]5(C)CC[C@H](O[C@@H]6OC[C@H](O)[C@H](O)[C@H]6O[C@@H]6O[C@@H](C)[C@H](O)[C@@H](O)[C@H]6O)[C@@](C)(CO)[C@@H]5CC[C@]43C)[C@@H]12 (stereo partly drawn) [DA001, 3-O-[α-L-rhamnopyranosyl-(1→2)-α-L-arabinopyranosyl]-3,23-dihydroxy-20(29)-lupen-28-oic acid] | 83.1 | 105.7 ± 5.1 ρg/mL | 105 | 91 | 71
C=C(C)[C@@H]1CC[C@]2(/C=N/O)CC[C@]3(C)C(CCC4[C@@]5(C)CCC(=O)[C@@](C)(CO)[C@@H]5CC[C@]43C)C12 (stereo partly shown) [DA021] | 78.3 | 135.3 ± 12.3 ρg/mL | 135 | 78 | 62
